Assay results from PubChem BioAssay AID248 (DTP/NCI, 2004).
Where “and” joins values, the source holds several entries; their conditions need not be identical. Equal values may be shown once. Toxic doses and inconclusive results are not listed.

Tested on: L1210 leukemia ip in BDF1 mice, survival T/C
Assay: NCI In Vivo Anticancer Drug Screen. Data for tumor model L1210 Leukemia (intraperitoneal) in B6D2F1 (BDF1) mice
Conditions: endpoint: mean survival time, higher = longer survival
Outline: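 Ratio derived from survival: compound-dosed mice over vehicle-dosed mice, all bearing a transplantable tumor.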

[1] = dose: 100.0 mg/kg/injection, schedule: Q04DX003 (ip), vehicle: saline with Tween-80
[2] = dose: 200.0 mg/kg/injection, schedule: Q01DX009 (ip), vehicle: saline
[3] = dose: 100.0 mg/kg/injection, schedule: Q01DX001 (ip), vehicle: steriod suspending solution
[4] = dose: 100.0 mg/kg/injection, schedule: Q04DX002 (ip), vehicle: Klucel (hydroxypropylcellulose) (HPC)
[5] = dose: 100.0 mg/kg/injection, schedule: Q01DX009 (ip), vehicle: Klucel (hydroxypropylcellulose) (HPC)
[6] = dose: 200.0 mg/kg/injection, schedule: Q04DX002 (ip), vehicle: Klucel (hydroxypropylcellulose) (HPC)
[7] = dose: 200.0 mg/kg/injection, schedule: Q01DX009 (ip), vehicle: Klucel (hydroxypropylcellulose) (HPC)
[8] = dose: 400.0 mg/kg/injection, schedule: Q04DX002 (ip), vehicle: Klucel (hydroxypropylcellulose) (HPC)
[9] = dose: 100.0 mg/kg/injection, schedule: Q04DX003 (ip), vehicle: Klucel (hydroxypropylcellulose) (HPC)
[10] = dose: 200.0 mg/kg/injection, schedule: Q04DX003 (ip), vehicle: Klucel (hydroxypropylcellulose) (HPC)
[11] = dose: 400.0 mg/kg/injection, schedule: Q04DX003 (ip), vehicle: Klucel (hydroxypropylcellulose) (HPC)

In the case of `O=C(NCCc1ccc(S(=O)(=O)Nc2ccc(N=Nc3ccc(N=Nc4ccccc4)cc3)cc2)cc1)C(N1CC1)(N1CC1)N1CC1`, the T/C (dose: 15.0 mg/kg/injection, schedule: Q01DX001 (ip), vehicle: saline) is reported as 104 % of control and the T/C (dose: 30.0 mg/kg/injection, schedule: Q01DX001 (ip), vehicle: saline) is reported as 106 % of control.

In the case of `c1ccc(CCNc2ccc(NCCc3ccccc3)cc2)cc1`, the T/C (dose: 75.0 mg/kg/injection, schedule: Q01DX001 (ip), vehicle: Klucel (hydroxypropylcellulose) (HPC)) is reported as 92 % of control, the T/C (dose: 75.0 mg/kg/injection, schedule: Q01DX009 (ip), vehicle: Klucel (hydroxypropylcellulose) (HPC)) is reported as 97 % of control and the T/C (dose: 150.0 mg/kg/injection, schedule: Q01DX001 (ip), vehicle: Klucel (hydroxypropylcellulose) (HPC)) is reported as 106 % of control. The T/C (dose: 150.0 mg/kg/injection, schedule: Q01DX009 (ip), vehicle: Klucel (hydroxypropylcellulose) (HPC)) was 100 % of control, the T/C (dose: 300.0 mg/kg/injection, schedule: Q01DX001 (ip), vehicle: Klucel (hydroxypropylcellulose) (HPC)) was 97 % of control and the T/C (dose: 300.0 mg/kg/injection, schedule: Q01DX009 (ip), vehicle: Klucel (hydroxypropylcellulose) (HPC)) was 106 % of control.

For `COc1cc2ccc(/C(C)=N/OC(C)=O)cc2cc1OC`, the T/C [1] was 100 % of control, the T/C (dose: 200.0 mg/kg/injection, schedule: Q04DX003 (ip), vehicle: saline with Tween-80) was 100 % of control and the T/C (dose: 400.0 mg/kg/injection, schedule: Q04DX003 (ip), vehicle: saline with Tween-80) was 106 % of control.

`COc1cccc(/C=N\N=C\c2cccc(OC)c2OC)c1OC` was tested, and the T/C (dose: 50.0 mg/kg/injection, schedule: Q01DX009 (ip), vehicle: saline) was 120 % of control and the T/C [2] was 110 % of control.

With `CCN(CC)C(=S)[S][Sb]([c]1ccccc1)[c]1ccccc1` the T/C [3] was 110 % of control.

For `COc1cc(Cn2cccc2/C=N/NC(N)=S)c([N+](=O)[O-])cc1OC`, the T/C (dose: 25.0 mg/kg/injection, schedule: Q04DX002 (ip), vehicle: Klucel (hydroxypropylcellulose) (HPC)) was 100 % of control, the T/C (dose: 50.0 mg/kg/injection, schedule: Q04DX002 (ip), vehicle: Klucel (hydroxypropylcellulose) (HPC)) was 104 % of control and the T/C [4] was 93 % of control.

With `CC(=O)CC(=O)C(F)(F)F.CC(=O)CC(=O)C(F)(F)F.[Mn]` the T/C (dose: 25.0 mg/kg/injection, schedule: Q01DX009 (ip), vehicle: Klucel (hydroxypropylcellulose) (HPC)) was 106 % of control, the T/C (dose: 50.0 mg/kg/injection, schedule: Q01DX005 (ip), vehicle: Klucel (hydroxypropylcellulose) (HPC)) was 97 % of control and the T/C (dose: 50.0 mg/kg/injection, schedule: Q01DX009 (ip), vehicle: Klucel (hydroxypropylcellulose) (HPC)) was 106 % of control. For the same molecule, the T/C (dose: 100.0 mg/kg/injection, schedule: Q01DX005 (ip), vehicle: Klucel (hydroxypropylcellulose) (HPC)) was 93 % of control, the T/C [5] was 106 % of control and the T/C [4] was 104 % of control. For the same molecule, the T/C [6] was 96 % of control.

In the case of `CC(CC(C#CC(CC(C)CC(C)(C)C)N(C)C)N(C)C)CC(C)(C)C` (centres undefined), the T/C [5] is reported as 96 % of control, the T/C [4] is reported as 111 % of control and the T/C [7] is reported as 93 % of control. The T/C [6] was 93 % of control and the T/C [8] was 90 % of control.

`COC(=O)C1C(C(=O)OC)C1(c1ccccc1)c1ccccc1` (centres undefined) was tested, and the T/C [3] was 95 % of control, the T/C (dose: 200.0 mg/kg/injection, schedule: Q01DX001 (ip), vehicle: steriod suspending solution) was 112 % of control and the T/C (dose: 400.0 mg/kg/injection, schedule: Q01DX001 (ip), vehicle: steriod suspending solution) was 95 % of control.

With `C=C(C)C1CC=C(/C=N/O)CC1` (centres undefined) the T/C (dose: 100.0 mg/kg/injection, schedule: Q01DX001 (ip), vehicle: saline) was 104 % of control, the T/C (dose: 100.0 mg/kg/injection, schedule: Q01DX009 (ip), vehicle: saline sonified) was 104 % of control and the T/C [9] was 96 % of control. The T/C (dose: 200.0 mg/kg/injection, schedule: Q01DX001 (ip), vehicle: saline) was 101 % of control, the T/C (dose: 200.0 mg/kg/injection, schedule: Q01DX009 (ip), vehicle: saline sonified) was 97 % of control and the T/C [10] was 98 % of control. For the same molecule, the T/C (dose: 400.0 mg/kg/injection, schedule: Q01DX001 (ip), vehicle: saline) was 95 % of control, the T/C (dose: 400.0 mg/kg/injection, schedule: Q01DX009 (ip), vehicle: saline sonified) was 97 % of control and the T/C [11] was 98 % of control.

For `Cc1cc(C)c(/C=C2\CCNC2=O)c(C)c1`, the T/C (dose: 50.0 mg/kg/injection, schedule: Q01DX001 (ip), vehicle: carboxymethylcellulose (CMC)) was 96 % of control, the T/C (dose: 100.0 mg/kg/injection, schedule: Q01DX001 (ip), vehicle: carboxymethylcellulose (CMC)) was 90 % of control and the T/C (dose: 200.0 mg/kg/injection, schedule: Q01DX001 (ip), vehicle: carboxymethylcellulose (CMC)) was 100 % of control. The T/C (dose: 400.0 mg/kg/injection, schedule: Q01DX001 (ip), vehicle: carboxymethylcellulose (CMC)) was 105 % of control.

For `CN(C)C(=O)Sc1ccc(S(=O)(=O)F)cc1Cl`, the T/C [9] was 101 % of control, the T/C [10] was 106 % of control and the T/C [11] was 101 % of control.

With `OC(CC(O)(C(F)(F)F)C(F)(F)F)CC(O)(C(F)(F)F)C(F)(F)F` the T/C (dose: 25.0 mg/kg/injection, schedule: Q01DX009 (ip), vehicle: saline with Tween-80) was 101 % of control and the T/C [1] was 95 % of control.

In the case of `N=C(N)c1ccc(-c2cc(-c3ccc(C(=N)N)cc3)on2)cc1`, the T/C (dose: 6.25 mg/kg/injection, schedule: Q04DX003 (ip), vehicle: saline) is reported as 100 % of control, the T/C (dose: 12.5 mg/kg/injection, schedule: Q04DX003 (ip), vehicle: saline) is reported as 103 % of control and the T/C (dose: 25.0 mg/kg/injection, schedule: Q04DX003 (ip), vehicle: saline) is reported as 108 % of control.

`NNc1cc(Cl)ccc1Cl` was tested, and the T/C [4] was 96 % of control, the T/C [6] was 96 % of control and the T/C [8] was 100 % of control.

With `CC1(C)CCc2cc3c(O)c(-c4ccccc4)c(=O)oc3cc2O1` the T/C (dose: 100.0 mg/kg/injection, schedule: Q04DX003 (ip), vehicle: saline) was 97 % of control, the T/C (dose: 200.0 mg/kg/injection, schedule: Q04DX003 (ip), vehicle: saline) was 91 % of control and the T/C (dose: 400.0 mg/kg/injection, schedule: Q04DX003 (ip), vehicle: saline) was 91 % of control.

For `CC1=CCC(O)(C(C)C)CC1` (centres undefined), the T/C (dose: 100.0 mg/kg/injection, schedule: Q01DX009 (ip), vehicle: saline) was 93 % of control, the T/C [2] was 93 % of control and the T/C (dose: 400.0 mg/kg/injection, schedule: Q01DX009 (ip), vehicle: saline) was 95 % of control.

`CC(C)(C)C1CCC(NC(=O)N(CCCl)N=O)CC1` (centres undefined) was tested, and the T/C (dose: 16.0 mg/kg/injection, schedule: Q01DX001 (ip), vehicle: other) was 116 % of control, the T/C (dose: 125.0 mg/kg/injection, schedule: Q01DX001 (ip), vehicle: other) was 198 % of control and the T/C (dose: 177.0 mg/kg/injection, schedule: Q01DX001 (ip), vehicle: other) was 264 % of control. The T/C (dose: 250.0 mg/kg/injection, schedule: Q01DX001 (ip), vehicle: other) was 259 % of control and 283 % of control, the T/C (dose: 354.0 mg/kg/injection, schedule: Q01DX001 (ip), vehicle: other) was 272 % of control and the T/C (dose: 375.0 mg/kg/injection, schedule: Q01DX001 (ip), vehicle: other) was 275 % of control. For the same molecule, the T/C (dose: 500.0 mg/kg/injection, schedule: Q01DX001 (ip), vehicle: other) was 200 % of control and 317 % of control, the T/C (dose: 708.0 mg/kg/injection, schedule: Q01DX001 (ip), vehicle: other) was 106 % of control and the T/C (dose: 750.0 mg/kg/injection, schedule: Q01DX001 (ip), vehicle: other) was 170 % of control and 252 % of control. The T/C (dose: 1000.0 mg/kg/injection, schedule: Q01DX001 (ip), vehicle: other) was 86 % of control, the T/C (dose: 1250.0 mg/kg/injection, schedule: Q01DX001 (ip), vehicle: other) was 219 % of control and the T/C (dose: 2000.0 mg/kg/injection, schedule: Q01DX001 (ip), vehicle: other) was 98 % of control.

In the case of `Nc1ccc2c(=O)[nH][nH]c(=O)c2c1`, the T/C (dose: 100.0 mg/kg/injection, schedule: Q01DX009 (ip), vehicle: saline with Tween-80) is reported as 98 % of control, the T/C (dose: 200.0 mg/kg/injection, schedule: Q01DX009 (ip), vehicle: saline with Tween-80) is reported as 98 % of control and the T/C (dose: 400.0 mg/kg/injection, schedule: Q01DX009 (ip), vehicle: saline with Tween-80) is reported as 95 % of control.

With `Cc1cc(Cl)nc(Cl)c1C#N` the T/C [5] was 101 % of control, the T/C [9] was 100 % of control and the T/C [7] was 97 % of control. For the same molecule, the T/C [10] was 89 % of control.

For `N/N=C\C=N\N`, the T/C (dose: 15.0 mg/kg/injection, schedule: Q01DX Z (ip), vehicle: saline) was 107 % of control, the T/C (dose: 30.0 mg/kg/injection, schedule: Q01DX Z (ip), vehicle: saline) was 107 % of control and the T/C (dose: 60.0 mg/kg/injection, schedule: Q01DX Z (ip), vehicle: saline) was 107 % of control.
